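Each compound was tested at five concentrations against cells in 96-well plates for 48 hours. Definition used: TGI = concentration required for complete inhibition of growth.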
Key:
Test in all cases: NCI-60 cell line screen, 48 h
[1] = system: A549 NSCLC
[2] = system: DU-145 prostate
[3] = system: SW-620 colon
[4] = system: KM12 colon
[5] = system: HOP-92 NSCLC
[6] = system: M14 melanoma
[7] = system: SF-268 CNS
[8] = system: RXF 393 renal
[9] = system: SK-OV-3 ovarian
[10] = system: NCI-H226 lung
[11] = system: UACC-62 melanoma
[12] = system: RPMI-8226 leukemia
[13] = system: COLO 205 colon
[14] = system: PC-3 prostate
[15] = system: SNB-19 CNS
[16] = system: HT29 colon
[17] = system: IGROV1 ovarian
[18] = system: SF-295 CNS
[19] = system: A498 renal
[20] = system: HCC-2998 colon
[21] = system: HCT-15 colon
[22] = system: ACHN renal
[23] = system: SNB-75 CNS
[24] = system: HOP-62 NSCLC
[25] = system: SF-539 CNS
[26] = system: MALME-3M melanoma
[27] = system: BT-549 breast
[28] = system: HCT-116 colon
[29] = system: HS 578T breast
[30] = system: 786-0 renal
[31] = system: EKVX NSCLC
[32] = system: NCI/ADR-RES ovarian
[33] = system: SK-MEL-28 melanoma
[34] = system: NCI-H23 lung
[35] = system: OVCAR-5 ovarian
[36] = system: OVCAR-3 ovarian
[37] = system: SR leukemia
[38] = system: U251 CNS
[39] = system: MDA-N
[40] = system: CCRF-CEM leukemia
[41] = system: MDA-MB-435
[42] = system: UACC-257 melanoma
[43] = system: MCF7 breast
[44] = system: NCI-H460 lung
[45] = system: MOLT-4 leukemia
[46] = system: HL-60(TB) leukemia
[47] = system: OVCAR-8 ovarian
[48] = system: TK-10 renal
[49] = system: SK-MEL-5 melanoma
[50] = system: UO-31 renal
[51] = system: K-562 leukemia
[52] = system: OVCAR-4 ovarian
[53] = system: MDA-MB-231 breast
[54] = system: SN12C renal
[55] = system: CAKI-1 renal
[56] = system: NCI-H522 lung
[57] = system: LOX IMVI melanoma
[58] = system: SK-MEL-2 melanoma

Compound: COC(=O)c1nc(-c2nc(CCNC(=O)OC(C)(C)C)sc2Cl)sc1Cl
- TGI [1]: > 100 µM
- TGI [2]: > 100 µM
- TGI [3]: > 100 µM
- TGI [4]: > 100 µM
- TGI [5]: 67.2 µM
- TGI [6]: > 100 µM
- TGI [7]: > 100 µM
- TGI [8]: > 100 µM
- TGI [9]: > 100 µM
- TGI [10]: > 100 µM
- TGI [11]: > 100 µM
- TGI [12]: > 100 µM
- TGI [13]: > 100 µM
- TGI [14]: > 100 µM
- TGI [15]: > 100 µM
- TGI [16]: > 100 µM
- TGI [17]: > 100 µM
- TGI [18]: > 100 µM
- TGI [19]: > 100 µM
- TGI [20]: > 100 µM
- TGI [21]: > 100 µM
- TGI [22]: > 100 µM
- TGI [23]: > 100 µM
- TGI [24]: > 100 µM
- TGI [25]: > 100 µM
- TGI [26]: > 100 µM
- TGI [27]: > 100 µM
- TGI [28]: > 100 µM
- TGI [29]: > 100 µM
- TGI [30]: > 100 µM
- TGI [31]: > 100 µM
- TGI [32]: > 100 µM
- TGI [33]: > 100 µM
- TGI [34]: > 100 µM
- TGI [35]: > 100 µM
- TGI [36]: > 100 µM
- TGI [37]: > 100 µM
- TGI [38]: > 100 µM
- TGI [39]: > 100 µM
- TGI [40]: > 100 µM
- TGI [41]: > 100 µM
- TGI [42]: > 100 µM
- TGI [43]: > 100 µM
- TGI [44]: > 100 µM
- TGI [45]: > 100 µM
- TGI [46]: > 100 µM
- TGI [47]: > 100 µM
- TGI [48]: > 100 µM
- TGI [49]: > 100 µM
- TGI [50]: > 100 µM
- TGI [51]: > 100 µM

Compound: COC(=O)C1ON2C(C1C(=O)OC)C(C)(C)N(O)C2(C)C (centres undefined)
- TGI [1]: > 10 µM
- TGI [2]: > 10 µM
- TGI [3]: > 10 µM
- TGI [4]: > 10 µM
- TGI [5]: > 10 µM
- TGI [52]: > 10 µM
- TGI [6]: > 10 µM
- TGI [7]: > 10 µM
- TGI [8]: > 10 µM
- TGI [10]: > 10 µM
- TGI [53]: > 10 µM
- TGI [13]: > 10 µM
- TGI [54]: > 10 µM
- TGI [14]: > 10 µM
- TGI [15]: > 10 µM
- TGI [16]: > 10 µM
- TGI [17]: > 10 µM
- TGI [18]: > 10 µM
- TGI [21]: > 10 µM
- TGI [22]: > 10 µM
- TGI [23]: > 10 µM
- TGI [25]: > 10 µM
- TGI [28]: > 10 µM
- TGI [31]: > 10 µM
- TGI [32]: > 10 µM
- TGI [33]: > 10 µM
- TGI [34]: > 10 µM
- TGI [35]: > 10 µM
- TGI [36]: > 10 µM
- TGI [38]: > 10 µM
- TGI [39]: > 10 µM
- TGI [41]: > 10 µM
- TGI [47]: > 10 µM
- TGI [48]: > 10 µM
- TGI [49]: > 10 µM
- TGI [55]: > 10 µM

Compound: NC(=S)N/N=c1\cc(C(=O)Nc2ccc([N+](=O)[O-])cc2[N+](=O)[O-])oc2ccccc12
- TGI [1]: > 100 µM
- TGI [2]: > 100 µM
- TGI [3]: > 100 µM
- TGI [4]: > 100 µM
- TGI [5]: > 100 µM
- TGI [52]: > 100 µM
- TGI [6]: > 100 µM
- TGI [7]: > 100 µM
- TGI [8]: > 100 µM
- TGI [9]: > 100 µM
- TGI [56]: > 100 µM
- TGI [10]: > 100 µM
- TGI [11]: > 100 µM
- TGI [53]: > 100 µM
- TGI [13]: > 100 µM
- TGI [54]: > 100 µM
- TGI [14]: > 100 µM
- TGI [15]: > 100 µM
- TGI [16]: > 100 µM
- TGI [17]: > 100 µM
- TGI [18]: > 100 µM
- TGI [20]: > 100 µM
- TGI [21]: > 100 µM
- TGI [22]: > 100 µM
- TGI [23]: > 100 µM
- TGI [24]: > 100 µM
- TGI [25]: > 100 µM
- TGI [27]: > 100 µM
- TGI [28]: > 100 µM
- TGI [29]: > 100 µM
- TGI [30]: > 100 µM
- TGI [31]: > 100 µM
- TGI [32]: > 100 µM
- TGI [33]: > 100 µM
- TGI [34]: > 100 µM
- TGI [57]: > 100 µM
- TGI [35]: > 100 µM
- TGI [36]: > 100 µM
- TGI [38]: > 100 µM
- TGI [39]: > 100 µM
- TGI [40]: > 100 µM
- TGI [41]: > 100 µM
- TGI [42]: > 100 µM
- TGI [43]: > 100 µM
- TGI [44]: > 100 µM
- TGI [58]: > 100 µM
- TGI [45]: > 100 µM
- TGI [46]: > 100 µM
- TGI [47]: > 100 µM
- TGI [48]: > 100 µM
- TGI [49]: > 100 µM
- TGI [50]: > 100 µM
- TGI [55]: > 100 µM

Compound: C/C(=N\Nc1nc2ccccc2o1)c1cc(C)ncn1
- TGI [1]: > 39 µM
- TGI [2]: > 100 µM
- TGI [3]: > 100 µM
- TGI [4]: 11.7 µM
- TGI [5]: > 21.7 µM
- TGI [52]: 27.5 µM
- TGI [6]: > 34.7 µM
- TGI [8]: 32.1 µM
- TGI [9]: 2.5 µM
- TGI [53]: 75 µM
- TGI [12]: > 100 µM
- TGI [13]: > 40.8 µM
- TGI [54]: > 100 µM
- TGI [14]: > 100 µM
- TGI [15]: > 100 µM
- TGI [16]: 14.8 µM
- TGI [17]: 1.51 µM
- TGI [19]: > 100 µM
- TGI [20]: > 48.6 µM
- TGI [21]: 35.3 µM
- TGI [22]: 29.3 µM
- TGI [23]: 3.27 µM
- TGI [24]: > 35.3 µM
- TGI [25]: 5.77 µM
- TGI [26]: 33.1 µM
- TGI [27]: > 100 µM
- TGI [28]: > 100 µM
- TGI [30]: 24.3 µM
- TGI [31]: 2.95 µM
- TGI [32]: 0.0739 µM
- TGI [33]: > 100 µM
- TGI [34]: > 43.7 µM
- TGI [35]: 26.8 µM
- TGI [36]: > 54.7 µM
- TGI [37]: > 100 µM
- TGI [38]: > 100 µM
- TGI [39]: > 100 µM
- TGI [40]: > 100 µM
- TGI [41]: > 100 µM
- TGI [43]: > 85.3 µM
- TGI [44]: 30.5 µM
- TGI [58]: 32.7 µM
- TGI [45]: 3.09 µM
- TGI [46]: > 100 µM
- TGI [47]: 0.0519 µM
- TGI [49]: 14.3 µM
- TGI [50]: 0.311 µM
- TGI [51]: > 100 µM
- TGI [55]: 42.5 µM

— PubChem BioAssay (NCI)
